From patent US20240287048A1, “SUBSTITUTED ACYL SULFONAMIDES FOR TREATING CANCER” (The Broad Institute, Inc., priority 2020, published 2024) come the findings set out here.

The target in assay [1] is T1, KAT6A (Homo sapiens, UniProt Q92794).
T1 construct: Recombinant human His-tagged Kat6a protein (amino acids 194-810); His; made in house; host or cells: Baculovirus-infected Sf9 insect cells
Description: Kat6a activity assay (TR-FRET, acetylation of biotinylated histone H4 peptide). The class given is biochemical. The following applies: recombinant human His-tagged Kat6a (amino acids 194-810), 60 mins at 22° C., read-out: KAT6A-DPF/HAT domain IC50 [mol/l] (arithmetic mean). An excerpt: Kat6a inhibitory activities of the compounds described in the present invention were quantified using a Fluorescence Resonance Energy Transfer (TR-FRET) assay which measures acetylation of a synthetic, biotinylated Histone-H4-derived peptide by the enzyme.
Recombinant human His-tagged Kat6a protein (amino acids 194-810), was purified in-house from Baculovirus-infected insect cells (Sf9). Histone H4 peptide (amino acids 1-24, […]-VLRD-K(Btn)-amide), which was used as substrate, was synthesized by Biosyntan GmbH, Berlin, Germany. Acetyl Coenzyme A was purchased from Sigma-Aldrich (#A-2056).
Kat6a was incubated for 60 mins at 22° C. in the presence of different concentrations of test substances (0 μM, and within the range 0.01-20 μM) in assay buffer [25 mM Tris/HCl pH 8, 1 mM EGTA, 2.5 mM Glutathion, 0.02% Chicken Albumin, 0.05% Pluronic F127, 25 mM NaCl, 220 nM H4 peptide and 600 nM Acetyl Coenzyme A].
The reaction was stopped by addition of Detection Solution (25 mM HEPES pH 7.5, 0.1% BSA, 22 nM SAXL665 (Cisbio #610SAXLE), 100 μM Anacardic Acid (Enzo #ALX-270-381), 1 nM Anti-Histone H4 (ACETYL K8) Antibody (ABCAM #AB15823) and 0.5 nM Anti-Rabbit IgG Eu (Perkin Elmer #AD0083).
The fluorescence emission at 620 nm and 665 nm after excitation at 330-350 nm was measured in a TR-FRET measuring instrument, for instance a Rubystar or a Pherastar (both from BMG Lab Technologies, Offenburg, Germany) or a Viewlux (Perkin-Elmer). The ratio of the emission at 665 nm and at […] was used as indicator of the amount of acetylated peptide.
The resulting data (ratio) were normalized, taking 0% inhibition as the mean value of control measurements where all reagents were included. In this case 50 nl DMSO were used instead of compounds. […] IC50 values were determined by regression analysis based on a 4 parameter equation (minimum, maximum, ICM, Hill; Y=Max+(Min−Max)/(1+(X/ICso) Hill) using the Screener Software (Genedata).
A general note: Time-resolved FRET reads energy transfer from a long-lived donor to a nearby acceptor.

The test system of assay [2] is ESR1 transcription in MVLN cells. Description: Repression of ESR1 transcription, MVLN luciferase reporter assay. The class given is cell-based. Conditions: Homo sapiens, luciferase signal after 24 h, read-out: MVLN reporter assay, IC50[M] (arithmetic mean). An excerpt: KAT6A controls transcription of the ESR1 gene in breast cancer cells. Compound treatment that interferes with this mechanism was quantified using MVLN cells. These cells constitutively express the ER and are stably transfected with the luciferase (LUC) reporter gene and the corresponding hormone responsive element derived from the 5′-flanking region of the Xenopus Vitellogenin A2 gene (Pons et al., 1990, Demirpense et al., 1993, Joyeux et al., 1993). The repressive effect on ERα transcription activity of a test chemical is directly related to the luciferase measured in the lysate of treated MVLN cells.
Each sample was prepared as duplicate and rim wells were excluded. For luciferase signal determination 100 μl of a 1:1 mixture of Steadylite plus (Perkin Elmer; 6016759) and assay medium was added after 24 h for 15 minutes and measured in Victor X3 (Perkin Elmer). To exclude any effects caused by cell loss during the treatment, cell density was determined using Alamar Blue (Invitrogen; DAL1100). Prior to the luciferase measurement 10 μl Alamar Blue were added to each well and the plates were incubated for 2 h in the incubator. Then fluorescence was measured with Victor X3 (Perkin Elmer) at 530 nm/590 nm.

T1 sequence (Q92794 194-810): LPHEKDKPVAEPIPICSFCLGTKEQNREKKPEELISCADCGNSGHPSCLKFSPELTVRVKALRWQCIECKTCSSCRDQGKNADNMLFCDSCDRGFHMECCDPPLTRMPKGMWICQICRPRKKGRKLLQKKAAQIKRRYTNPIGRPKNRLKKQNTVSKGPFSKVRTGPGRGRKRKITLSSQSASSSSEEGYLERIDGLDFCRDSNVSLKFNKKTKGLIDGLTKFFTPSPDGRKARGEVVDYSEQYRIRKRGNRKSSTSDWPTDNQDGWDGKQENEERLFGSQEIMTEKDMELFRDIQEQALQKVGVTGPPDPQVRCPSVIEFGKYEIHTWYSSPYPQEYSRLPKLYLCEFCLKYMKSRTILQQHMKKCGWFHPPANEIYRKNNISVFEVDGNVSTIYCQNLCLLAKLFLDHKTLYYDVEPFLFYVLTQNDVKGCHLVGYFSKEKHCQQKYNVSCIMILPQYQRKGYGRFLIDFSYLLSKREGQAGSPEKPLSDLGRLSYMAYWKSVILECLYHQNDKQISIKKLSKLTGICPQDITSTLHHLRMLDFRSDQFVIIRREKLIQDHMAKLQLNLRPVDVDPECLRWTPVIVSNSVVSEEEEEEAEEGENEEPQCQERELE

Take `CCOc1c(F)cccc1S(=O)(=O)NC(=O)c1cc2c(F)cc(C3CC3)cc2o1` [Example 28, 6-Cyclopropyl-N-(2-ethoxy-3-fluoro-phenyl)sulfonyl-4-fluoro-benzofuran-2-carboxamide]: the IC50 worked out at 0.106 µM in assay [1] and 1.7e-06 M in assay [2].

`CCOc1cc(F)ccc1S(=O)(=O)NC(=O)c1cc2c(F)cc(C3CC3)cc2o1` [Example 30, 6-Cyclopropyl-N-(2-ethoxy-4-fluoro-phenyl)sulfonyl-4-fluoro-benzofuran-2-carboxamide]: the IC50 amounted to 0.0373 µM in assay [1] and 2.84e-07 M in assay [2].

With `CCOc1ccc(C(F)(F)F)cc1S(=O)(=O)NC(=O)c1cc2c(F)cc(C3CC3)cc2o1` [Example 31, 6-Cyclopropyl-N-[2-ethoxy-5-(trifluoromethyl)phenyl]sulfonyl-4-fluoro-benzofuran-2-carboxamide], the IC50 in assay [1] came out at 0.00899 µM; in assay [2], 2.31e-07 M.

Turning to `CCOc1ccc(F)cc1S(=O)(=O)NC(=O)c1cc2c(F)cc(C3CC3)cc2o1` [Example 32, 6-Cyclopropyl-N-(2-ethoxy-5-fluoro-phenyl)sulfonyl-4-fluoro-benzofuran-2-carboxamide], the IC50 in assay [1] amounted to 0.0556 µM; in assay [2], 4.23e-07 M.

On to `CCOc1ccc(Oc2ccccc2)cc1S(=O)(=O)NC(=O)c1cc2c(F)cc(C3CC3)cc2o1` [Example 33, 6-Cyclopropyl-N-(2-ethoxy-5-phenoxy-phenyl)sulfonyl-4-fluoro-benzofuran-2-carboxamide], for which the IC50 came to 0.00632 µM in assay [1] and 1.74e-06 M in assay [2].

With `CCOc1ccc(OC(F)(F)F)cc1S(=O)(=O)NC(=O)c1cc2c(F)cc(C3CC3)cc2o1` [Example 34, 6-Cyclopropyl-N-[2-ethoxy-5-(trifluoromethoxy)phenyl]sulfonyl-4-fluoro-benzofuran-2-carboxamide], the IC50 in assay [1] is 0.0208 µM; in assay [2] it was 1.42e-06 M.

Take `CC(C)c1ccc(OCc2ccccc2)c(S(=O)(=O)NC(=O)c2cc3c(F)cc(C4CC4)cc3o2)c1` [Example 35, N-(2-Benzyloxy-5-isopropyl-phenyl)sulfonyl-6-cyclopropyl-4-fluoro-benzofuran-2-carboxamide]: the IC50 in assay [1] was determined as 0.00599 µM; in assay [2], 2.19e-07 M.

In the case of `CC(C)c1ccc(OCC2CC2)c(S(=O)(=O)NC(=O)c2cc3c(F)cc(C4CC4)cc3o2)c1` [Example 36, 6-Cyclopropyl-N-[2-(cyclopropylmethoxy)-5-isopropyl-phenyl]sulfonyl-4-fluoro-benzofuran-2-carboxamide], the results for the IC50 in assay [1] and in assay [2] were 0.00301 µM and 1.41e-07 M, respectively.

Turning to `CCCOc1ccccc1S(=O)(=O)NC(=O)c1cc2c(F)cc(C3CC3)cc2o1` [Example 40, 6-Cyclopropyl-4-fluoro-N-(2-propoxyphenyl)sulfonyl-benzofuran-2-carboxamide], the IC50 in assay [1] came to 0.0248 µM; in assay [2] it was 6.63e-07 M.

As to `CC(C)c1ccc(OCC(F)(F)F)c(S(=O)(=O)NC(=O)c2cc3c(F)cc(C4CC4)cc3o2)c1` [Example 41, 6-Cyclopropyl-4-fluoro-N-[5-isopropyl-2-(2,2,2-trifluoroethoxy)phenyl]sulfonyl-benzofuran-2-carboxamide], the results for the IC50 in assay [1] and in assay [2] were 0.00499 µM and 2.98e-07 M, respectively.

On to `O=C(NS(=O)(=O)c1ccccc1)c1cc2c(OC(F)F)cc(C3CC3)cc2o1` [Example 46, N-(benzenesulfonyl)-6-cyclopropyl-4-(difluoromethoxy)benzofuran-2-carboxamide], for which the IC50 in assay [1] is 0.148 µM; in assay [2] it was 1.77e-05 M.

Consider `O=C(NS(=O)(=O)c1ccccc1-c1ccccc1)c1cc2c(OC(F)F)cc(C3CC3)cc2o1` [Example 48, 6-Cyclopropyl-4-(difluoromethoxy)-N-(2-phenylphenyl)sulfonyl-benzofuran-2-carboxamide], for which the IC50 in assay [1] was 0.0267 µM; in assay [2] it was 5.54e-06 M.

`CCOc1ccccc1S(=O)(=O)NC(=O)c1cc2c(OC(F)F)cc(C3CC3)cc2o1` [Example 49, 6-Cyclopropyl-4-(difluoromethoxy)-N-(2-ethoxyphenyl)sulfonyl-benzofuran-2-carboxamide]: the IC50 in assay [1] is 0.0286 µM; in assay [2] it was 6.97e-06 M.

For `CCOc1ccccc1S(=O)(=O)NC(=O)c1cc2c(-n3ccnc3)cc(C3CC3)cc2o1` [Example 58, 6-Cyclopropyl-N-(2-ethoxyphenyl)sulfonyl-4-imidazol-1-yl-benzofuran-2-carboxamide], the IC50 in assay [1] is 0.0395 µM; in assay [2], over 2e-05 M.

Regarding `CC(C)(C)c1ccc(OC2CC2)c(S(=O)(=O)NC(=O)c2cc3c(F)cc(C4CC4)cc3o2)c1` [Example 59, N-((5-(tert-butyl)-2-cyclopropoxyphenyl)sulfonyl)-6-cyclopropyl-4-fluorobenzofuran-2-carboxamide], the IC50 came out at 0.00358 µM in assay [1] and 1.04e-07 M in assay [2].

Consider `CC(C)(C)c1ccc(OCc2ccccc2)c(S(=O)(=O)NC(=O)c2cc3c(F)cc(C4CC4)cc3o2)c1` [Example 60, N-[(2-(Benzyloxy)-5-(tert-butyl)phenyl)sulfonyl]-6-cyclopropyl-4-fluorobenzofuran-2-carboxamide], for which the IC50 in assay [1] was found to be 0.00267 µM; in assay [2] it was 8.24e-08 M.

On to `CC(C)(C)c1ccc(OCC2CC2)c(S(=O)(=O)NC(=O)c2cc3c(F)cc(C4CC4)cc3o2)c1` [Example 61, N-((5-(tert-butyl)-2-(cyclopropylmethoxy)phenyl)sulfonyl)-6-cyclopropyl-4-fluorobenzofuran-2-carboxamide], for which the IC50 in assay [1] turned out to be 0.00292 µM; in assay [2], 1.11e-07 M.

With `CC(C)(C)c1ccc(OCC(F)(F)F)c(S(=O)(=O)NC(=O)c2cc3c(F)cc(C4CC4)cc3o2)c1` [Example 62, N-((5-(tert-butyl)-2-(2,2,2-trifluoroethoxy)phenyl)sulfonyl)-6-cyclopropyl-4-fluorobenzofuran-2-carboxamide], the IC50 in assay [1] was 0.00416 µM; in assay [2] it was 2.4e-07 M.

Consider `CC(C)(C)c1ccc(OC2CCC2)c(S(=O)(=O)NC(=O)c2cc3c(F)cc(C4CC4)cc3o2)c1` [Example 63, N-((5-(tert-Butyl)-2-cyclobutoxyphenyl)sulfonyl)-6-cyclopropyl-4-fluorobenzofuran-2-carboxamide], for which the IC50 in assay [1] came to 0.00246 µM; in assay [2] it was 2.24e-07 M.

As for `CC(C)Oc1ccc(C(C)(C)C)cc1S(=O)(=O)NC(=O)c1cc2c(F)cc(C3CC3)cc2o1` [Example 64, N-((5-(tert-Butyl)-2-isopropoxyphenyl)sulfonyl)-6-cyclopropyl-4-fluorobenzofuran-2-carboxamide], the IC50 in assay [1] worked out at 0.00433 µM; in assay [2] it was 1.76e-07 M.

Take `CC(C)c1ccc(OC2CCC2)c(S(=O)(=O)NC(=O)c2cc3c(F)cc(C4CC4)cc3o2)c1` [Example 65, N-[(2-Cyclobutoxy-5-isopropylphenyl)sulfonyl]-6-cyclopropyl-4-fluorobenzofuran-2-carboxamide]: the IC50 came out at 0.00209 µM in assay [1] and 1.49e-07 M in assay [2].

On to `CC(C)c1ccc(OCC2CC2(F)F)c(S(=O)(=O)NC(=O)c2cc3c(F)cc(C4CC4)cc3o2)c1` (stereo not shown) [Example 67, 6-Cyclopropyl-N-{(2-[(2,2-difluorocyclopropyl)methoxy)-5-isopropylphenyl]sulfonyl}-4-fluorobenzofuran-2-carboxamide], for which the IC50 in assay [1] was found to be 0.0045 µM; in assay [2], 8.29e-08 M.

For the compound `CCOc1ccc(C(C)C)cc1S(=O)(=O)NC(=O)c1cc2c(F)cc(C3CC3)cc2o1` [Example 72, 6-Cyclopropyl-N-(2-ethoxy-5-isopropyl-phenyl)sulfonyl-4-fluoro-benzofuran-2-carboxamide], the values for the IC50 in assay [1] and in assay [2] were 0.00479 µM and 1.23e-07 M, respectively.
